Test results as given in patent US20240016938A1, “METHODS FOR INCREASING THE BIOAVAILABILITY OF NUCLEOSIDE MEDICINAL AGENTS” (ZOGENIX MDS, INC., priority 2022, published 2024).
Like-named read-outs stand apart in the source and are kept apart here.

Assay: Phase 1 open-label, fixed-sequence, single-ascending dose and food-effect PK study of MT1621 in adult healthy subjects
Format: in vivo, human
Conditions: for half-life: read-out: t½ (converted)
Method: A phase 1 study was conducted as an open-label, fixed-sequence, single-ascending dose study in adult healthy subjects designed to evaluate the safety, tolerability, PK, and food-effect of MT1621 (dC and dT). To evaluate the PK of MT1621, the combination was administered at three different doses. Treatment A was a 43.3 mg/kg dose of MT1621 (i.e., a 43.3 mg/kg dose of dC and a 43.3 mg/kg dose of dT (each approximately equivalent to 1 dose of a 130 mg/kg daily dose, divided 3 times daily [TID])) in healthy male and female subjects under fasting conditions; Treatment B was an 86.7 mg/kg dose of MT1621 (i.e., a 86.7 mg/kg dose of dC and a 86.7 mg/kg dose of dT (each approximately equivalent to 1 dose of a 260 mg/kg daily dose, divided TID)) in healthy male and female subjects under fasting conditions; and Treatment C was a 133.3 mg/kg dose of MT1621 (i.e., a 133.3 mg/kg dose of dC and a 133.3 mg/kg dose of dT (each approximately equivalent to a 400 mg/kg daily dose, divided TID)) in healthy male and female subjects under fasting conditions. Additionally, Treatment D was a 133.3 mg/kg dose of MT1621 (i.e., a 133.3 mg/kg dose of dC and a 133.3 mg/kg dose of dT (each approximately equivalent to a 400 mg/kg daily dose, divided TID) in healthy male and female subjects under fed conditions, to determine the effect of a high-fat meal on the single-dose PK of MT1621.
Methodology of open-label, Phase 1, fixed-sequence, single-dose, dose escalation, and food-effect study. Fourteen (14) healthy, adult, male and female subjects were enrolled with an approximately equal distribution (at least 40% of each sex) between male and female subjects.
On Day 1 of each period, subjects received 1 of 3 dose levels of MT1621 under fasting conditions as escalating single doses over 3 periods in Part A (Treatments A, B, and C in Periods 1, 2, and 3, respectively) and with the highest dose under fed conditions in Part B (Treatment D in Period 4). Four (4) of 14 subjects that completed Part A (Periods 1 to 3) could not complete Part B (Treatment D in Period 4) during the original confinement. These subjects were then to return to the clinical unit and continue the study to complete Part B (Treatment D in Period 4); 2 of the 4 subjects completed Part B.
Each treatment was assessed by blood and urine PK sampling pre-dose and up to 48 hours post-dose for the determination of dC and dT in plasma and urine PK, and possible future analysis of blood for PD biomarkers.
A washout period of at least 2 days without drug between each treatment administration was maintained. Fourteen subjects were enrolled in the study, and 12 subjects completed the study. Data from 14 subjects were included in the PK analysis of Periods 1, 2, and 3 and data from 12 subjects were included in the PK analysis of Period 4.
Study drug administered in Example 1 was 0.5 g dC and 0.5 g dT powders for solution and were reconstituted in juice or water.
After reconstitution in a fixed amount of water or juice, the solution was administered via measured volume to provide the amounts specified in Studies A, B, C, and D.
MT1621 was administered orally at Hour 0 on Day 1, following an overnight fast for Treatments A, B, and C and within 5 minutes of consumption of a standardized high-fat breakfast (which included eggs, bacon, and toast with butter) for Treatment D.
Blood samples for the determination of plasma dC and dT concentrations were collected on Day 1 of each period at pre-dose (0 hour), and at 0.25, 0.5, 1, 1.5, 2, 3, 4, 5, 6, 8, 12, 24, and 48 after study drug administration. In Period 4, blood was collected for the 48-hour PK sample; for Periods 1 through 3, the 48-hour PK sample was collected at the same time as the pre-dose PK sample from the next period so only 1 sample was collected for both PK time points. It should be pointed out that Periods 1-3 used sampling up to 24 hours for PK while Period 4 used the complete 48-hour profile. […]

[1] = 100*(test/reference): 133.3 mg/kg MT1621 fed vs fasted, baseline-adjusted plasma
[2] = Treatment A: single 43.3 mg/kg MT1621, fasted, baseline-adjusted plasma, arithmetic mean ± SD
[3] = Treatment B: single 86.7 mg/kg MT1621, fasted, baseline-adjusted plasma, arithmetic mean ± SD
[4] = Treatment C: single 133.3 mg/kg MT1621, fasted, baseline-adjusted plasma, arithmetic mean ± SD
[5] = Treatment D: single 133.3 mg/kg MT1621, fed (high-fat breakfast), baseline-adjusted plasma, arithmetic mean ± SD
[6] = across the 3 fasted dose levels (Treatments A, B, C), plasma

increase in baseline adjusted AUC, fed compared to fasted (133.3 mg/kg MT1621, plasma): 74%
increase in baseline adjusted Cmax, fed compared to fasted (133.3 mg/kg MT1621, plasma): 27%
AUC0-t GMR (%) [1]: 174.38%
Cmax GMR (%) [1]: 127.39%
AUC%extrap [2]: 46.24 NC %
Kel [2]: 0.1569 NC 1/hr
AUC%extrap [3]: 6.481 ± 5.9830%
Kel [3]: 0.0932 ± 0.07205 h⁻¹
AUC%extrap [4]: 1.954 ± 1.6169%
Kel [4]: 0.09785 ± 0.06094 h⁻¹
AUC%extrap [5]: 1.244 ± 1.1349%
Kel [5]: 0.2445 ± 0.2863 h⁻¹
Vd/F (both sexes, human, oral, Treatment D: single 133.3 mg/kg MT1621, fed (high-fat breakfast), baseline-adjusted plasma, arithmetic mean ± SD, read-out: Vz/F): 6220 ± 2880 L/kg
half-life (both sexes, human, plasma, oral, 43.3 mg/kg, Treatment A: single 43.3 mg/kg MT1621, fasted, baseline-adjusted plasma, arithmetic mean ± SD): 4.42 h
AUC(0-inf) (both sexes, human, plasma, oral, 43.3 mg/kg, Treatment A: single 43.3 mg/kg MT1621, fasted, baseline-adjusted plasma, geometric mean (geometric CV %)): 3.56 ng·h/mL
AUC(0-t) (both sexes, human, plasma, oral, 43.3 mg/kg, Treatment A: single 43.3 mg/kg MT1621, fasted, baseline-adjusted plasma, geometric mean (geometric CV %), read-out: AUC0-4): 8.78 ng·h/mL
AUC(0-t) (both sexes, human, plasma, oral, 43.3 mg/kg, Treatment A: single 43.3 mg/kg MT1621, fasted, baseline-adjusted plasma, geometric mean (geometric CV %), read-out: AUC0-6): 11.1 ng·h/mL
AUC(0-t) (both sexes, human, plasma, oral, 43.3 mg/kg, Treatment A: single 43.3 mg/kg MT1621, fasted, baseline-adjusted plasma, geometric mean (geometric CV %), read-out: AUC0-48): 18.2 ng·h/mL
AUC(0-t) (both sexes, human, plasma, oral, 43.3 mg/kg, Treatment A: single 43.3 mg/kg MT1621, fasted, baseline-adjusted plasma, geometric mean (geometric CV %), read-out: AUC0-t): 12.6 ng·h/mL
Cmax (both sexes, human, plasma, oral, 43.3 mg/kg, Treatment A: single 43.3 mg/kg MT1621, fasted, baseline-adjusted plasma, geometric mean (geometric CV %), read-out: Cmax): 6.19 ng/mL
Tmax (both sexes, human, plasma, oral, 43.3 mg/kg, Treatment A: single 43.3 mg/kg MT1621, fasted, baseline-adjusted plasma, median (minimum, maximum), read-out: Tmax): 0.516 h
half-life (both sexes, human, plasma, oral, 86.7 mg/kg, Treatment B: single 86.7 mg/kg MT1621, fasted, baseline-adjusted plasma, arithmetic mean ± SD): 10.4 ± 5.95 h
AUC(0-inf) (both sexes, human, plasma, oral, 86.7 mg/kg, Treatment B: single 86.7 mg/kg MT1621, fasted, baseline-adjusted plasma, geometric mean (geometric CV %)): 67.2 ng·h/mL
AUC(0-t) (both sexes, human, plasma, oral, 86.7 mg/kg, Treatment B: single 86.7 mg/kg MT1621, fasted, baseline-adjusted plasma, geometric mean (geometric CV %), read-out: AUC0-4): 21 ng·h/mL
AUC(0-t) (both sexes, human, plasma, oral, 86.7 mg/kg, Treatment B: single 86.7 mg/kg MT1621, fasted, baseline-adjusted plasma, geometric mean (geometric CV %), read-out: AUC0-6): 23.1 ng·h/mL
AUC(0-t) (both sexes, human, plasma, oral, 86.7 mg/kg, Treatment B: single 86.7 mg/kg MT1621, fasted, baseline-adjusted plasma, geometric mean (geometric CV %), read-out: AUC0-48): 82.1 ng·h/mL
AUC(0-t) (both sexes, human, plasma, oral, 86.7 mg/kg, Treatment B: single 86.7 mg/kg MT1621, fasted, baseline-adjusted plasma, geometric mean (geometric CV %), read-out: AUC0-t): 31.7 ng·h/mL
Cmax (both sexes, human, plasma, oral, 86.7 mg/kg, Treatment B: single 86.7 mg/kg MT1621, fasted, baseline-adjusted plasma, geometric mean (geometric CV %), read-out: Cmax): 14.2 ng/mL
Tmax (both sexes, human, plasma, oral, 86.7 mg/kg, Treatment B: single 86.7 mg/kg MT1621, fasted, baseline-adjusted plasma, median (minimum, maximum), read-out: Tmax): 1.06 h
AUC(0-t) (both sexes, human, plasma, oral, 133.3 mg/kg, Treatment C, fasted, baseline-adjusted plasma, ANOVA on ln-transformed data, read-out: AUC0-t Geometric LSM, 133.3 mg/kg MT1621, Fasted (Reference)): 91.2 ng·h/mL
Cmax (both sexes, human, plasma, oral, 133.3 mg/kg, Treatment C, fasted, baseline-adjusted plasma, ANOVA on ln-transformed data, read-out: Cmax Geometric LSM, 133.3 mg/kg MT1621, Fasted (Reference)): 31.5 ng/mL
half-life (both sexes, human, plasma, oral, 133.3 mg/kg, Treatment C: single 133.3 mg/kg MT1621, fasted, baseline-adjusted plasma, arithmetic mean ± SD): 8.76 ± 4.04 h
AUC(0-inf) (both sexes, human, plasma, oral, 133.3 mg/kg, Treatment C: single 133.3 mg/kg MT1621, fasted, baseline-adjusted plasma, geometric mean (geometric CV %)): 144 ng·h/mL
AUC(0-t) (both sexes, human, plasma, oral, 133.3 mg/kg, Treatment C: single 133.3 mg/kg MT1621, fasted, baseline-adjusted plasma, geometric mean (geometric CV %), read-out: AUC0-4): 53.1 ng·h/mL
AUC(0-t) (both sexes, human, plasma, oral, 133.3 mg/kg, Treatment C: single 133.3 mg/kg MT1621, fasted, baseline-adjusted plasma, geometric mean (geometric CV %), read-out: AUC0-6): 60.6 ng·h/mL
AUC(0-t) (both sexes, human, plasma, oral, 133.3 mg/kg, Treatment C: single 133.3 mg/kg MT1621, fasted, baseline-adjusted plasma, geometric mean (geometric CV %), read-out: AUC0-48): 114 ng·h/mL
AUC(0-t) (both sexes, human, plasma, oral, 133.3 mg/kg, Treatment C: single 133.3 mg/kg MT1621, fasted, baseline-adjusted plasma, geometric mean (geometric CV %), read-out: AUC0-t): 91.2 ng·h/mL
Cmax (both sexes, human, plasma, oral, 133.3 mg/kg, Treatment C: single 133.3 mg/kg MT1621, fasted, baseline-adjusted plasma, geometric mean (geometric CV %), read-out: Cmax): 31.5 ng/mL
Tmax (both sexes, human, plasma, oral, 133.3 mg/kg, Treatment C: single 133.3 mg/kg MT1621, fasted, baseline-adjusted plasma, median (minimum, maximum), read-out: Tmax): 1.25 h
AUC(0-t) (both sexes, human, plasma, oral, 133.3 mg/kg, Treatment D, fed, baseline-adjusted plasma, ANOVA on ln-transformed data, read-out: AUC0-t Geometric LSM, 133.3 mg/kg MT1621, Fed (Test)): 159 ng·h/mL
Cmax (both sexes, human, plasma, oral, 133.3 mg/kg, Treatment D, fed, baseline-adjusted plasma, ANOVA on ln-transformed data, read-out: Cmax Geometric LSM, 133.3 mg/kg MT1621, Fed (Test)): 40.1 ng/mL
half-life (both sexes, human, plasma, oral, 133.3 mg/kg, Treatment D: single 133.3 mg/kg MT1621, fed (high-fat breakfast), baseline-adjusted plasma, arithmetic mean ± SD): 5.35 ± 3.11 h
AUC(0-inf) (both sexes, human, plasma, oral, 133.3 mg/kg, Treatment D: single 133.3 mg/kg MT1621, fed (high-fat breakfast), baseline-adjusted plasma, geometric mean (geometric CV %)): 149 ng·h/mL
AUC(0-t) (both sexes, human, plasma, oral, 133.3 mg/kg, Treatment D: single 133.3 mg/kg MT1621, fed (high-fat breakfast), baseline-adjusted plasma, geometric mean (geometric CV %), read-out: AUC0-4): 74.4 ng·h/mL
AUC(0-t) (both sexes, human, plasma, oral, 133.3 mg/kg, Treatment D: single 133.3 mg/kg MT1621, fed (high-fat breakfast), baseline-adjusted plasma, geometric mean (geometric CV %), read-out: AUC0-6): 119 ng·h/mL
AUC(0-t) (both sexes, human, plasma, oral, 133.3 mg/kg, Treatment D: single 133.3 mg/kg MT1621, fed (high-fat breakfast), baseline-adjusted plasma, geometric mean (geometric CV %), read-out: AUC0-48): 141 ng·h/mL
AUC(0-t) (both sexes, human, plasma, oral, 133.3 mg/kg, Treatment D: single 133.3 mg/kg MT1621, fed (high-fat breakfast), baseline-adjusted plasma, geometric mean (geometric CV %), read-out: AUC0-t): 159 ng·h/mL
Cmax (both sexes, human, plasma, oral, 133.3 mg/kg, Treatment D: single 133.3 mg/kg MT1621, fed (high-fat breakfast), baseline-adjusted plasma, geometric mean (geometric CV %), read-out: Cmax): 40.1 ng/mL
Tmax (both sexes, human, plasma, oral, 133.3 mg/kg, Treatment D: single 133.3 mg/kg MT1621, fed (high-fat breakfast), baseline-adjusted plasma, median (minimum, maximum), read-out: Tmax): 4 h
Tmax (both sexes, human, plasma, oral, under fasted conditions, read-out: median Tmax): 1 h
Tmax (both sexes, human, plasma, oral, under fed conditions, read-out: median Tmax): 3 h
plasma exposure compared to endogenous (baseline) concentrations (following MT1621, all 3 dose levels): consistently higher
Structure (SMILES): Cc1cn([C@H]2C[C@H](O)[C@@H](CO)O2)c(=O)[nH]c1=O [dT, β-D-2′-deoxythymidine]
dose proportionality of AUC (total extent of exposure, AUC0-t and AUC0-inf) [6]: neither AUC nor Cmax was dose proportional
dose proportionality of Cmax [6]: neither AUC nor Cmax was dose proportional
